Assay [1] concerns t-PA-induced lysis of whole blood clots. Put plainly: Whole blood fibrinolysis assay (ROTEM, EXTEM with t-PA). Format: cell-based, human. The following applies: for IC50: Ly60, read-out: concentration resulting in 50% suppression of clot lysis (IC50, median [25%; 75% percentile]); for potency at inhibiting clot lysis relative to tranexamic acid: whole blood and plasma clot lysis, versus tranexamic acid. The procedure:
Venous blood was withdrawn from the antecubital vein from healthy volunteers after written informed consent in accordance with local and federal guidelines with approval of the local review board (Ethikkommission, Klinikum Charité, Sauerbruchweg 5, 10117 Berlin). The blood was mixed with 0.11 mol/L sodium citrate (1:10). For ROTEM® analysis, whole citrated blood was used within 8 h after collection. Platelet-rich plasma (PRP) was prepared from citrated blood by centrifugation at 330×g for 10 min at room temperature, platelet-poor plasma (PPP) was collected following centrifugation at 1220×g for 12 min. The PRP was then adjusted to 3×10^8 platelets per mL using the autologous PPP. PRP was maintained at room temperature for less than 4 h before analysis. The remaining PPP was subjected to a high-speed centrifugation at 40,000×g for 30 min at 4° C. to remove any particulate material and was then stored at −70° C. until use.
The antifibrinolytic activity of Compound No. 3 in comparison to aprotinin and tranexamic acid was investigated in plasma and whole blood assays. In both assays, tissue factor was added to initiate rapid clot formation via the extrinsic pathway which produces a clot that remains stable for several hours under normal conditions. Supplementation of plasma or whole blood with tissue-type plasminogen activator (t-PA) before stimulation results in activation of endogenous plasminogen and thus fibrinolysis while the initial clot formation is not impaired. […] A final concentration of 50 U/mL and 100 U/mL in plasma and whole blood, respectively, was chosen to achieve complete lysis within about 60 min. In the presence of antifibrinolytics, clot lysis is delayed in a concentration-dependent manner.
Fibrinolysis in whole blood was studied with rotational thromboelastometry (Luddington, Clin. Lab. Haematol. 27: 81-90, 2005) using a computerized, multi-channel ROTEM® instrument (Pentapharm, Munich, Germany) (Ganter et al., Anesth. Analg. 106: 1366-75, 2008). Activation of test samples accelerated the measurement process and enhanced reproducibility compared with conventional thromboelastography. To allow observation of fibrinolysis, ROTEM® analysis with tissue factor activation (EXTEM) was modified through addition of t-PA (Nielsen et al. Blood Coagul. Fibrinolysis 17: 75-81, 2006). Citrated blood was pre-incubated at 37° C. for 5 min with test compound or saline before tissue factor, CaCl2 and t-PA (100 U/mL final concentration) were added to start the reaction. Fibrinolysis was determined by measuring loss of clot strength with time and was recorded as Ly60 (percentage reduction of the maximum amplitude at 60 min after the onset of clotting). In control samples without inhibitor, clots were lysed completely within 60 min, such that Ly60 was above 90%. By plotting Ly60 versus test compound concentration, IC50 values for each compound were calculated.

Assay [2] has as its system coagulation in human plasma (PPP). In words: Plasma coagulation times (prothrombin time, activated partial thromboplastin time). The note with it: for plasma coagulation times (prothrombin time, activated partial thromboplastin time): 100 to 1000 nM. It is filed as biochemical. From the text:
Since Compound No. 3 inhibits multiple proteases of the coagulation system, we investigated possible anticoagulant properties using established tests in vitro. Whereas tissue factor is the physiologic trigger of coagulation, both extrinsic and contact-mediated stimulation contribute to hemostatic activation under conditions like CPB (Boisclair et al. Blood 82: 3350-7, 1993 and Edmunds et al., Ann. Thorac. Surg. 82: 2315-22, 2006). We therefore studied the impact of Compound No. 3 and aprotinin on coagulation in plasma and whole blood following both intrinsic and extrinsic stimulation. Tranexamic acid has no influence on other proteases than plasminogen and, therefore, is not included in these experiments.
Prothrombin time and activated partial thromboplastin time were determined after human plasma (PPP) was supplemented with test compound solution or saline using a conventional coagulation analyzer (Sysmex CA-560, Dade Behring). Reagents used were Innovin® (extrinsic activator containing tissue factor) for prothrombin time and Actin® FSL (contact activator containing ellagic acid and phospholipids) for activated partial thromboplastin time, both from Dade Behring (Eschborn, Germany).

The target in assay [3] is T1, Human factor XIIa (alpha) (Homo sapiens, UniProt P00748).
T1 construct: Human factor Xa, factor XIa, factor XIIa, thrombin, and plasma kallikrein were purchased; purchased Enzyme Research Laboratories (via Haemochrom, Essen)
T1 sequence (P00748 373-615 limits assumed): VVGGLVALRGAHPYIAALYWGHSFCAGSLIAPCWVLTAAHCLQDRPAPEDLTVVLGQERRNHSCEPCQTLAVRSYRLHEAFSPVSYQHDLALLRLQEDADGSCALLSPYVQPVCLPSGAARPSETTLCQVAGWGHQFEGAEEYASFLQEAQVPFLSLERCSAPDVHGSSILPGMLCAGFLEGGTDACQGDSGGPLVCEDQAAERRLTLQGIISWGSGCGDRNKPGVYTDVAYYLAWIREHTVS
T1 sequence (P00748 20-372 partner limits assumed): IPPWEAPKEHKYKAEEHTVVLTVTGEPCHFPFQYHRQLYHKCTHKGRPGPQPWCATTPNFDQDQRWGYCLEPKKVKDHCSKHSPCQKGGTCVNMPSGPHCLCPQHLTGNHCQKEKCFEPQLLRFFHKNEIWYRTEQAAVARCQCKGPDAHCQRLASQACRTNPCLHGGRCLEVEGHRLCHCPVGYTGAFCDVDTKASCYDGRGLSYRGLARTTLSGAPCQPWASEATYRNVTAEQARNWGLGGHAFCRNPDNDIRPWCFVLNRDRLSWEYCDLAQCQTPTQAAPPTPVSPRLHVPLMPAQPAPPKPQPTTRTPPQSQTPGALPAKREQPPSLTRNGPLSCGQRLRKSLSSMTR
In words: Inhibition constants against purified human serine proteases: FXIIa. Format: biochemical. The note with it: 50 mM Tris-HCl pH 8.0, 154 mM NaCl, Chromozym XII. An excerpt: Aprotinin and tranexamic acid were purchased from SIGMA (Schnelldorf, Germany). Human factor Xa, factor XIa, factor XIIa, thrombin, and plasma kallikrein were purchased from Enzyme Research Laboratories, and human plasmin from Chromogenix (both via Haemochrom, Essen, Germany). Various synthetic peptide chromogenic substrates used for determination of inhibition constants were obtained from Pentapharm (Basel, Switzerland), Roche (Mannheim, Germany), and Chromogenix: Chromozyme PL for plasmin, S2302 for plasma kallikrein, Pefachrome FXa for factor Xa, Chromozym XII for FXIIa, Pefachrom tPA for thrombin, and Pefachrome PCa for factor XIa. […]
Inhibition of purified human serine proteases by Compound No. 3 and aprotinin was studied using the established methods described herein in Example 3 (i.e., Stürzebecher et al., 1997). […] Steady-state velocities of substrate conversion were obtained from progress curves generated by continuous monitoring of the absorbance at 405 nm with a microplate reader (Multiskan Ascent, Thermo Electron Corporation, Dreieich, Germany). […] Inhibition constants (Ki) were calculated from non-linear fits of individual data sets to the Michaelis-Menten equation for competitive inhibitors using an enzyme kinetic analysis software (SIGMA Plot® 9.0 Enzyme Kinetics Module, SSI, San Jose, Calif.). […]

Setting [4] is: human whole blood, t-PA 100 U/mL.
[5] abbreviates: higher aprotinin concentrations (data not shown).

aprotinin: in assay [1] (setting [4]), the IC50 came to 345 nM. Also, the “IC50 of clot lysis expressed in KIU/mL” value in assay [1] (human whole blood, t-PA 100 U/mL, converted from nM) is given as 16 KIU/mL. In assay [1], the “potency at inhibiting clot lysis relative to tranexamic acid” value is listed as ~10 fold. Moreover, the “plasma coagulation times (prothrombin time, activated partial thromboplastin time)” value in assay [2] is “almost no influence”. In assay [2] (setting [5]), the “activated partial thromboplastin time” value is listed as “marked prolongation” and the extrinsic coagulation result is given as “not affected”.

In assay [3], `N=C(N)c1ccc(CNC(=O)[C@H](Cc2cccc(CN)c2)NC(=O)[C@@H](CCCc2ccccc2)NS(=O)(=O)Cc2cccc(C(=O)O)c2)cc1` [compound 3, 3-HOOC-Bzls-d-Ppg-Phe(3-Ame)-4-Amba×2 acetate] displayed a Ki of 5200 ± 400 nM. In assay [1] (setting [4]), the IC50 turned out to be 150 nM. Also, the “concentration that largely suppresses clot lysis / effective inhibition” value in assay [1] (whole blood ROTEM, t-PA-induced lysis) is 600 nM. Also, the “potency at inhibiting clot lysis relative to tranexamic acid” value in assay [1] is reported as ~10 fold. Also, the “plasma coagulation times (prothrombin time, activated partial thromboplastin time)” value in assay [2] is reported as “significant prolongation”.

The record behind these values is US8410310B2, “Trypsin-like serine protease inhibitors, and their preparation and use” (The Medicines Company (Leipzig) GmbH, priority 2006, dated 2013).
